{
  "source": "patent US8673906B2",
  "about": "“Chromenone derivatives” (AstraZeneca AB, priority 2010, dated 2014)",
  "data": [
    {"target": "PI3Kβ (Homo sapiens (Human), UniProt P42338)", "sequence (P42338 whole entry)": "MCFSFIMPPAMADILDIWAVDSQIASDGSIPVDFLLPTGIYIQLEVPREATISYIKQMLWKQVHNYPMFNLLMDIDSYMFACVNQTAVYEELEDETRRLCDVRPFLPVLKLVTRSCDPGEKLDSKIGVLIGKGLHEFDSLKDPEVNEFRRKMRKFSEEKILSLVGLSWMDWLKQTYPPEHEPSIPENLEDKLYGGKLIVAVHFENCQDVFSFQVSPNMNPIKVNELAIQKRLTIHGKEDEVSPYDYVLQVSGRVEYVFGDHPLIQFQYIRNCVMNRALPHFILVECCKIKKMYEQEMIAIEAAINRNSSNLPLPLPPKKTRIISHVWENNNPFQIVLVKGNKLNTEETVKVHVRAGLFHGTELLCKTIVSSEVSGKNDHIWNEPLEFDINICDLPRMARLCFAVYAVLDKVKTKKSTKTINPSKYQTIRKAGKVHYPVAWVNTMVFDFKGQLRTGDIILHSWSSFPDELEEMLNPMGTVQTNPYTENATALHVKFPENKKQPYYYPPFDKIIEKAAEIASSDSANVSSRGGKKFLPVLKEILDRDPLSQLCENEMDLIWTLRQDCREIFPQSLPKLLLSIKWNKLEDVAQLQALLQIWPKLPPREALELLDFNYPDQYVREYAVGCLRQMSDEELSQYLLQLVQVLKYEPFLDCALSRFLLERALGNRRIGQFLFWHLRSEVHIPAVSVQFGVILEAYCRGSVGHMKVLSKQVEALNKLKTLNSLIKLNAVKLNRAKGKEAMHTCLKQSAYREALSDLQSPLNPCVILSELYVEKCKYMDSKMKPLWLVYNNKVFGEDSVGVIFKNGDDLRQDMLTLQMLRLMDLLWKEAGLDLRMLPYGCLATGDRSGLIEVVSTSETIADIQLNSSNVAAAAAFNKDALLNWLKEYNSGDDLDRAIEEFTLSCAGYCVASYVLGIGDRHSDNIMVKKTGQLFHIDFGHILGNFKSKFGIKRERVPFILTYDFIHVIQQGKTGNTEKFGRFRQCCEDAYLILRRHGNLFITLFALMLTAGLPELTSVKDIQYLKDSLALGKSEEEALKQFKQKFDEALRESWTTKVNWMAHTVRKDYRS", "sequence (P27986 whole entry partner)": "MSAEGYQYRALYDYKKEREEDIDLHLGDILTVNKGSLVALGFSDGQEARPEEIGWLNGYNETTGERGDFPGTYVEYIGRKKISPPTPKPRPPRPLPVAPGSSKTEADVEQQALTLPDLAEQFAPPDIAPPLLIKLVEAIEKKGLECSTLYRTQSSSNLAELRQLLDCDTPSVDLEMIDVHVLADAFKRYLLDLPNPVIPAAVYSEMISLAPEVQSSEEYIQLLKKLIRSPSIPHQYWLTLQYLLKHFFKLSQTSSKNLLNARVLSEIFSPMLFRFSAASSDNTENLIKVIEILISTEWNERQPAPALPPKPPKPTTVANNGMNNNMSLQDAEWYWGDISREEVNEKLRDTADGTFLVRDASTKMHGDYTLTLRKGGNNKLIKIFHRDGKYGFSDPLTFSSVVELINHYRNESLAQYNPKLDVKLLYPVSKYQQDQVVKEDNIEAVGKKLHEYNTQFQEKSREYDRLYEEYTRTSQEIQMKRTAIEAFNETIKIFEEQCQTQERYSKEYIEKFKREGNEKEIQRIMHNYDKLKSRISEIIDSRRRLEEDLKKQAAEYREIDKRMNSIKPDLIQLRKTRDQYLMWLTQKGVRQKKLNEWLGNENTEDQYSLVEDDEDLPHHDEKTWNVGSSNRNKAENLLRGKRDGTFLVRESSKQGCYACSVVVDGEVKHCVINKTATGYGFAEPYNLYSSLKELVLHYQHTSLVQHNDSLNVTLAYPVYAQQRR", "assay": "In vitro enzyme inhibition assay (Kinase Glo based enzyme activity assay)", "assay_type": "biochemical", "settings": "Test (a), human recombinant enzyme; read-out: PI3Kβ inhibition, IC50", "experimental": "(a) In Vitro Enzyme Inhibition Assay\nThe inhibition of PI3Kβ, PI3Kα, PI3Kγ and PI3Kδ was evaluated in a Kinase Glo based enzyme activity assay using human recombinant enzymes. The assay measures depletion of ATP after incubation with enzyme, PIP2 and ATP plus compound. ATP at the end of the reaction is detected by addition of Kinase Glo reagent, in this the Ultra Glo™ luciferase (Promega) uses the ATP as a substrate to catalyze the mono-oxygenation of luciferin and the generation of light. A direct relationship exists between the luminescence measured with the Kinase-Glo Plus Reagent and the amount of ATP remaining in a completed kinase reaction and luminescence is inversely related to kinase activity. Twelve different compound concentrations were tested and raw data from the inhibition of PI3 Kb, PI3Kα, PI3Kγ and PI3Kδ was plotted versus inhibitor concentration.\nCompounds in 100% DMSO were added to assay plates by acoustic dispensing. PI3Kβ was added in a Tris buffer (50 mM Tris pH7.4, 0.05% CHAPS, 2.1 mM DTT, and 10 mM MgCl2) and allowed to preincubate with compound for 20 minutes prior to addition of substrate solution containing PIP2 and ATP. The enzyme reaction was stopped after 80 minutes by the addition of Kinase Glo detection solution. Plates were left for 30 minutes at room temperature then read on a Pherastar Instrument (Luminescence ATP 384 program) setting gain on max well. The final concentration of DMSO, ATP and PIP2 in the assay were, 1%, 80 μM, and 80 μM respectively.\nIC50 values were calculated using a log curve fitting to a non-linear regression package, fitting raw data to inhibitor concentration.", "units": {"IC50": "nM"}, "values": [
      {"smiles": "CC(Nc1cc(F)cc(F)c1)c1cc(C(=O)N2CCC(O)CC2)cc2c(=O)cc(N3CCOCC3)oc12", "note": "(stereo not drawn) [Example 4.09, 8-(1-(3,5-difluorophenylamino)ethyl)-6-(4-hydroxypiperidine-1-carbonyl)-2-morpholino-4H-chromen-4-one]", "IC50": 3},
      {"smiles": "CC(c1cc(C(=O)N2CCC(O)C2)cc2c(=O)cc(N3CCOCC3)oc12)N(C)c1cc(F)cc(F)c1", "note": "(stereo not drawn) [Example 5.02, 8-(1-((3,5-difluorophenyl)(methyl)amino)ethyl)-6-(3-hydroxypyrrolidine-1-carbonyl)-2-morpholino-4H-chromen-4-one]", "IC50": 7},
      {"smiles": "C#Cc1cc(F)cc(NC(C)c2cc(C(=O)N(C)C)cc3c(=O)cc(N4CCOCC4)oc23)c1", "note": "(stereo not drawn) [Example 3.34, 8-(1-(3-ethynyl-5-fluorophenylamino)ethyl)-N,N-dimethyl-2-morpholino-4-oxo-4H-chromene-6-carboxamide]", "IC50": 4},
      {"smiles": "CC(Nc1cc(F)ccc1Cl)c1cc(C(=O)N(C)C)cc2c(=O)cc(N3CCOCC3)oc12", "note": "(stereo not drawn) [Example 3.26, 8-(1-(2-chloro-5-fluorophenylamino)ethyl)-N,N-dimethyl-2-morpholino-4-oxo-4H-chromene-6-carboxamide]", "IC50": 4},
      {"smiles": "CC(c1cc(C(=O)N(C)C)cc2c(=O)cc(N3CCOCC3)oc12)N(C)c1cc(F)c(F)c(F)c1", "note": "(stereo not drawn) [Example 3.38, N,N-dimethyl-8-(1-(methyl(3,4,5-trifluorophenyl)amino)ethyl)-2-morpholino-4-oxo-4H-chromene-6-carboxamide]", "IC50": 17},
      {"smiles": "CC(c1cc(C(=O)NCCN(C)C)cc2c(=O)cc(N3CCOCC3)oc12)N(C)c1ccc(F)cc1", "note": "(stereo not drawn) [Example 3.00, N-(2-(dimethylamino)ethyl)-8-(1-((4-fluorophenyl)(methyl)amino)ethyl)-2-morpholino-4-oxo-4H-chromene-6-carboxamide]", "IC50": 7},
      {"smiles": "Cc1ccc(F)cc1NC(C)c1cc(C(=O)N(C)C)cc2c(=O)cc(N3CCOCC3)oc12", "note": "(stereo not drawn) [Example 3.22, 8-(1-(5-fluoro-2-methylphenylamino)ethyl)-N,N-dimethyl-2-morpholino-4-oxo-4H-chromene-6-carboxamide]", "IC50": 4},
      {"smiles": "Cc1c(C#N)cccc1NC(C)c1cc(C(=O)N(C)C)cc2c(=O)cc(N3CCOCC3)oc12", "note": "(stereo not drawn) [Example 3.29, 8-(1-(3-cyano-2-methylphenylamino)ethyl)-N,N-dimethyl-2-morpholino-4-oxo-4H-chromene-6-carboxamide]", "IC50": 5},
      {"smiles": "CC(c1cc(C(=O)N2CCC[C@@H]2CO)cc2c(=O)cc(N3CCOCC3)oc12)N(C)c1cc(F)cc(F)c1", "note": "(stereo partly drawn) [Example 5.03, 8-(1-((3,5-difluorophenyl)(methyl)amino)ethyl)-6-((R)-2-(hydroxymethyl)pyrrolidine-1-carbonyl)-2-morpholino-4H-chromen-4-one]", "IC50": 7},
      {"smiles": "COCCNC(=O)c1cc(C(C)Nc2cc(F)cc(F)c2)c2oc(N3CCOCC3)cc(=O)c2c1", "note": "(stereo not drawn) [Example 4.15, 8-(1-(3,5-difluorophenylamino)ethyl)-N-(2-methoxyethyl)-2-morpholino-4-oxo-4H-chromene-6-carboxamide]", "IC50": 4},
      {"smiles": "CC(Nc1cc(F)cc(F)c1F)c1cc(C(=O)N(C)C)cc2c(=O)cc(N3CCOCC3)oc12", "note": "(single isomer, unassigned; (-)) [Example 3.13b, (−)-N,N-dimethyl-2-morpholino-4-oxo-8-(1-(2,3,5-trifluorophenylamino)ethyl)-4H-chromene-6-carboxamide]", "IC50": 4},
      {"smiles": "CC(Nc1ccc(F)c(Cl)c1)c1cc(C(=O)N(C)CCO)cc2c(=O)cc(N3CCOCC3)oc12", "note": "(stereo not drawn) [Example 2.04, 8-(1-(3-chloro-4-fluorophenylamino)ethyl)-N-(2-hydroxyethyl)-N-methyl-2-morpholino-4-oxo-4H-chromene-6-carboxamide]", "IC50": 4},
      {"smiles": "CNC(=O)c1cc(C(C)Nc2cc(F)cc(F)c2)c2oc(N3CCOCC3)cc(=O)c2c1", "note": "(stereo not drawn) [Example 4.22, 8-(1-(3,5-difluorophenylamino)ethyl)-N-methyl-2-morpholino-4-oxo-4H-chromene-6-carboxamide]", "IC50": 4},
      {"smiles": "COCCN(C)C(=O)c1cc(C(C)Nc2cc(F)cc(F)c2)c2oc(N3CCOCC3)cc(=O)c2c1", "note": "(stereo not drawn) [Example 4.24, 8-(1-(3,5-difluorophenylamino)ethyl)-N-(2-methoxyethyl)-N-methyl-2-morpholino-4-oxo-4H-chromene-6-carboxamide]", "IC50": 4},
      {"smiles": "Cc1ccc(C#N)cc1NC(C)c1cc(C(=O)N(C)C)cc2c(=O)cc(N3CCOCC3)oc12", "note": "(stereo not drawn) [Example 3.21, 8-(1-(5-cyano-2-methylphenylamino)ethyl)-N,N-dimethyl-2-morpholino-4-oxo-4H-chromene-6-carboxamide]", "IC50": 114},
      {"smiles": "CC(Nc1c(F)ccc(F)c1F)c1cc(C(=O)N(C)C)cc2c(=O)cc(N3CCOCC3)oc12", "note": "(stereo not drawn) [Example 3.27, N,N-dimethyl-2-morpholino-4-oxo-8-(1-(2,3,6-trifluorophenylamino)ethyl)-4H-chromene-6-carboxamide]", "IC50": 9},
      {"smiles": "CC(Nc1cc(F)cc(F)c1)c1cc(C(=O)N2CCC[C@@H]2CO)cc2c(=O)cc(N3CCOCC3)oc12", "note": "(stereo partly drawn) [Example 4.20, 8-(1-(3,5-difluorophenylamino)ethyl)-6-((R)-2-(hydroxymethyl)pyrrolidine-1-carbonyl)-2-morpholino-4H-chromen-4-one]", "IC50": 5},
      {"smiles": "CC(Nc1cccc(Cl)c1F)c1cc(C(=O)NCCN(C)C)cc2c(=O)cc(N3CCOCC3)oc12", "note": "(stereo not drawn) [Example 2.00, 8-(1-(3-chloro-2-fluorophenylamino)ethyl)-N-(2-(dimethylamino)ethyl)-2-morpholino-4-oxo-4H-chromene-6-carboxamide]", "IC50": 9},
      {"smiles": "CC(Nc1cccc(Cl)c1)c1cc(C(=O)N(C)C)cc2c(=O)cc(N3CCOCC3)oc12", "note": "(stereo not drawn) [Example 3.09, 8-(1-(3-chlorophenylamino)ethyl)-N,N-dimethyl-2-morpholino-4-oxo-4H-chromene-6-carboxamide]", "IC50": 4},
      {"smiles": "CC(Nc1ccc(F)c(Cl)c1)c1cc(C(=O)N2CCC(O)CC2)cc2c(=O)cc(N3CCOCC3)oc12", "note": "(stereo not drawn) [Example 2.03, 8-(1-(3-chloro-4-fluorophenylamino)ethyl)-6-(4-hydroxypiperidine-1-carbonyl)-2-morpholino-4h-chromen-4-one]", "IC50": 6},
      {"smiles": "CC(Nc1cccc(Cl)c1Cl)c1cc(C(=O)N(C)C)cc2c(=O)cc(N3CCOCC3)oc12", "note": "(stereo not drawn) [Example 3.19, 8-(1-(2,3-dichlorophenylamino)ethyl)-N,N-dimethyl-2-morpholino-4-oxo-4H-chromene-6-carboxamide]", "IC50": 5},
      {"smiles": "COCCCNC(=O)c1cc(C(C)Nc2cc(F)cc(F)c2)c2oc(N3CCOCC3)cc(=O)c2c1", "note": "(stereo not drawn) [Example 4.19, 8-(1-(3,5-difluorophenylamino)ethyl)-N-(3-methoxypropyl)-2-morpholino-4-oxo-4H-chromene-6-carboxamide]", "IC50": 23},
      {"smiles": "CC(Nc1cc(F)cc(F)c1)c1cc(C(=O)N(C)C)cc2c(=O)cc(N3CCOC[C@@H]3C)oc12", "note": "(stereo partly drawn) [Example 11.00, 8-(1-(3,5-difluorophenylamino)ethyl)-N,N-dimethyl-2-((S)-3-methylmorpholino)-4-oxo-4H-chromene-6-carboxamide]", "IC50": 21},
      {"smiles": "CC(Nc1ccc(F)c(Cl)c1)c1cc(C(=O)N(C)C)cc2c(=O)cc(N3CCOCC3)oc12", "note": "(stereo not drawn) [Example 3.05, 8-(1-(3-chloro-4-fluorophenylamino)ethyl)-N,N-dimethyl-2-morpholino-4-oxo-4H-chromene-6-carboxamide]", "IC50": 6},
      {"smiles": "CC(Nc1cc(F)cc(F)c1)c1cc(C(=O)N2CCC[C@H]2CO)cc2c(=O)cc(N3CCOCC3)oc12", "note": "(stereo partly drawn) [Example 4.21, 8-(1-(3,5-difluorophenylamino)ethyl)-6-((S)-2-(hydroxymethyl)pyrrolidine-1-carbonyl)-2-morpholino-4H-chromen-4-one]", "IC50": 4},
      {"smiles": "CC(Nc1cc(F)cc(F)c1)c1cc(C(=O)N(C)CCO)cc2c(=O)cc(N3CCOCC3)oc12", "note": "(stereo not drawn) [Example 4.07, 8-(1-(3,5-difluorophenylamino)ethyl)-N-(2-hydroxyethyl)-N-methyl-2-morpholino-4-oxo-4H-chromene-6-carboxamide]", "IC50": 4},
      {"smiles": "CC(c1cc(C(=O)N(C)C)cc2c(=O)cc(N3CCOCC3)oc12)N(C)c1cc(F)cc(Cl)c1", "note": "(stereo not drawn) [Example 3.37, 8-(1-((3-chloro-5-fluorophenyl)(methyl)amino)ethyl)-N,N-dimethyl-2-morpholino-4-oxo-4H-chromene-6-carboxamide]", "IC50": 12},
      {"smiles": "CC(Nc1cc(F)cc(F)c1)c1cc(C(=O)NCCO)cc2c(=O)cc(N3CCOCC3)oc12", "note": "(stereo not drawn) [Example 4.14, 8-(1-(3,5-difluorophenylamino)ethyl)-N-(2-hydroxyethyl)-2-morpholino-4-oxo-4H-chromene-6-carboxamide]", "IC50": 4},
      {"smiles": "CC(Nc1cc(F)cc(F)c1F)c1cc(C(=O)N(C)C)cc2c(=O)cc(N3CCOCC3)oc12", "note": "(stereo not drawn) [Example 3.13, N,N-dimethyl-2-morpholino-4-oxo-8-(1-(2,3,5-trifluorophenylamino)ethyl)-4H-chromene-6-carboxamide]", "IC50": 6},
      {"smiles": "CCNC(=O)c1cc(C(C)Nc2cc(F)cc(F)c2)c2oc(N3CCOCC3)cc(=O)c2c1", "note": "(stereo not drawn) [Example 4.17, 8-(1-(3,5-difluorophenylamino)ethyl)-N-ethyl-2-morpholino-4-oxo-4H-chromene-6-carboxamide]", "IC50": 5}
    ]}
  ]
}
